Measured values from US11442059B2, “Method for treating a chronic itch condition by administering small molecule MrgprX4 antagonists” (The Johns Hopkins University, priority 2017, dated 2022).
“Also recorded” adds a separate entry of the source. Starred links: 1 amine or outer side, 2 acyl side, 3 side chain; linkers in the order of their positions; H or OH if unused. Positions of bridges follow the written chain, without caps; N, C: chain ends. Non-standard residues stand in square brackets, D forms with d. Residues, ends and D or L forms follow the SMILES beside them. X1 = CC(=O)NC(C(=O)OC(C(C)C)C(N[*:1])C(=O)[*:2])C(O)C(C)C; PhLac = O=C(O)[CH](O)Cc1ccccc1; NMeT = CN[CH](C(=O)O)[CH](C)O; NMeA = CN[CH](C)C(=O)O; NMeDha = C=C(NC)C(=O)O

Experiments:
[1] = system: mice; assay: Acute itch behaviour after injection (scratching bouts); assay type: in vivo, mouse; details: for itch responses in WT versus Cluster KO animals: injection at nape or cheek; for scratching / itch elicited by injection: WT mice; for itch elicited in Cluster KO animals: Cluster KO mice
[2] = target: T1, MRGPRX4 (Homo sapiens, UniProt Q96LA9); assay: Fura 2-AM calcium imaging, EC50 determinations, MRGPRX4 HEK293 cells; assay type: cell-based; parameters: expressed in transfected cells; whole cells or crude membrane fraction; details: 10 μM pre-incubated 30 minutes; 50 μM bilirubin
Procedure: (§1) Cells were imaged in calcium imaging buffer (CIB; 10 mM HEPES, 1.2 mM NaHCO3, 130 mM NaCl, 3 mM KCl, 2.5 mM CaCl2, 0.6 mM MgCl2, 20 mM glucose, and 20 mM sucrose at pH 7.4 and 290-300 mOsm). To monitor changes in intracellular [Ca^2+] ([Ca^2+]i), cells were loaded with either Fura 2-AM (HEK293 cells) or Fluo 4-AM (DRG neurons and mast cells) for 30 min in the dark at 37° C. in CIB just prior to imaging. With Fura 2-AM, emission at 510 nm was monitored from excitation at both 340 nm and 380 nm. With Fluo 4-AM, emission at 520 nm was monitored from excitation at 488 nm. Cells were identified as responding if the intracellular [Ca^2+] rose by either 50% compared to baseline or 50% compared to the [Ca^2+]i change assayed during addition of 50 mM KCl (neurons only). Damaged, detached, high-baseline, and motion-activated cells were excluded from analysis.
(§2) In initial screens, HEK293 cells stably expressing the murine G-protein alpha-subunit Gα15, a unique Gα protein that non-selectively couples a large variety of GPCRs to phospholipase C^30, were plated on poly-D-lysine-coated coverslips and transiently transfected with constructs encoding the MRGRPR of interest. 12-24 h later, cells were loaded with the Fura 2-AM. Unless otherwise specified, compounds were perfused into the imaging chamber for approximately thirty seconds after a baseline period was established. Response was then monitored at 5 s intervals for an additional 60 s.
HEK293 cells stably expressing either MRGPRA1, MRGPRX4, and MRGRPC11 were seeded in poly-D-lysine-coated 96-well plates at 10,000 cells/well. Cells were loaded with Fura 2-AM, washed twice, and maintained in CIB. Haem metabolites were freshly dissolved in DMSO in dim light and then diluted into a buffer comprised of 20 mM Tris and 150 mM NaCl at pH 8.8. Potential changes in pH were evaluated prior to each experiment. EC50 values were determined from dose-responses performed in triplicate, repeated 2-4 times. […]

[3] = target: T2, MrgprA1 (Mus musculus, UniProt Q91WW5); assay: Fura 2-AM calcium imaging, EC50 and IC50 determinations, MRGPRA1 HEK293 cells; assay type: cell-based; details: 10 μM pre-incubated 30 minutes; 50 μM bilirubin
T2 construct: expressed in transfected cells; whole cells or crude membrane fraction
T2 sequence (Q91WW5 1-304): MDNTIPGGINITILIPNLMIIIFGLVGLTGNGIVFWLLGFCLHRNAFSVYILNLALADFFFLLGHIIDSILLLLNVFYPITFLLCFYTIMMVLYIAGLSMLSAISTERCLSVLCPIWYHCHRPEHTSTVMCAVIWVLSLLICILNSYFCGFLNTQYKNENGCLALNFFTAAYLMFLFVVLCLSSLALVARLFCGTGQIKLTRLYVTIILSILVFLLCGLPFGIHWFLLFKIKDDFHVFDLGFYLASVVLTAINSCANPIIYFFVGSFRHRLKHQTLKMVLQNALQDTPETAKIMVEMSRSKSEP
Procedure: as §1, §2
HEK293 cells stably expressing either MRGPRA1, MRGPRX4, and MRGRPC11 were seeded in poly-D-lysine-coated 96-well plates at 10,000 cells/well. Cells were loaded with Fura 2-AM, washed twice, and maintained in CIB. Haem metabolites were freshly dissolved in DMSO in dim light and then diluted into a buffer comprised of 20 mM Tris and 150 mM NaCl at pH 8.8. Potential changes in pH were evaluated prior to each experiment. EC50 values were determined from dose-responses performed in triplicate, repeated 2-4 times. To determine potential antagonism by QWF against bilirubin, cells were treated with varying doses of QWF for 1 min in CIB prior to application of agonist.

[4] = system: 129S1/SvImJ mice; assay: SJS/TEN mouse model (daily oral gavage of causative drug); assay type: in vivo; details: mouse, in vivo
Procedure: Eight-to-ten week old male mice were orally gavaged with either causative drugs (LTG, allopurinol, oxcarbazepine) suspended in saline or saline once daily. The dosage was based on milligrams per kilogram of animal's body weight as indicated (for example, LTG 50 mg kg^−1 body weight). Skin, eyes, and mucosa, survival, body weight, physical and gross appearances (particularly on the eyes, mucosa and skins) were monitored every day.
The animals were deeply anesthetized with pentobarbital and transcardially perfused with 20 ml 0.1 M cold PBS (pH 7.4) followed with 25 ml of cold 4% paraformaldehyde (PFA). Paw skin, eyelid, spleen, lymph nodes were dissected out. postfixed in 4% PFA for more than two hours, and cryoprotected in a 20% followed by 30% sucrose solution for 24 hours each at 4° C. Tissue samples were embedded in the optimal cutting temperature (OCT) and frozen before being serially cut into 20 μm sections and placed onto slides. Hematoxylin and eosin (H&E) staining was performed using standard procedures according to the manufacturer's instruction VITROVIEW™ H&E Stain Kit). To quantify amount of apoptotic cells, terminal deoxynucleotidyl transferase dUTP nick end labeling (TUNEL) assay, a method for detecting DNA fragmentation that results from apoptotic cells by labeling the terminal end of nucleic acids, was performed by following the protocol of Apo-BrdU DNA Fragmentation Assay Kit (Biovision). To estimate the total cell number in tissue, all nuclei were stained with propidium iodide. Digital photographs were captured under confocal fluorescent microscopy at x200 magnification (Zeiss LSM 700). The number of TUNEL-positive nuclei were counted and reported as a percentage over the number of total nuclei observed in the skin's epidermis layer.

[5] = target: T1, MRGPRX4; assay: MrgprX4 antagonist assay vs bilirubin (HTRF IP-One inositol phosphate); assay type: cell-based; parameters: expressed in transfected cells; details: blockade of bilirubin (100 μM) induced signal; test compound typically 10 μM
Procedure: (§3) Intracellular inositol phosphate levels were determined using a 384-well homogenous time-resolved fluorescence assay (HTRF IP-One®, CisBio International, Bagnols/Ceze, France, Cat #62IPAPEJ) as described by the manufacturer's one-step protocol. Briefly, HEK293 cells stably expressing recombinant human MrgprX4 were harvested and suspended in phenol-red free OptiMEM (ThermoFisher) and plated into 384-well assay plates (Perkin Elmer, Proxiplate-Plus® Cat #6008280) at 15,000 cells/well in a volume of 10 μL/well. These cell plates were then incubated overnight at 37° C. in a humidified CO2 incubator. Test compounds were dissolved in DMSO and were further diluted in Assay Buffer (Tris.HCl 40 mM, NaCl 300 mM, LiCl 350 mM, pH 8) and added to the cells (2 μL addition, final assay concentration typically 10 μM). In this configuration, the assay can detect agonists and inverse agonists. For detection of antagonists, test compound addition was followed by addition of bilirubin (2 μL addition, final assay concentration 100 μM). Regardless of the assay format (agonist/inverse agonist vs. antagonist) plates were then incubated for 1 h, at 37° C., followed by 30 minutes at room temperature. Lysis/detection reagents (6 uL/well) were then added and plates incubated for 1 h at room temperature before reading on an HTRF compatible reader such as a Perkin Elmer EnVision® or BMG Pherastar®.

[6] = target: T1, MRGPRX4; assay: MrgprX4 inverse agonist assay (HTRF IP-One inositol phosphate); assay type: cell-based; parameters: expressed in transfected cells; details: HEK293 cells stably expressing recombinant human MrgprX4, final assay concentration typically 10 μM
Procedure: as §3

T1 sequence (Q96LA9 whole entry): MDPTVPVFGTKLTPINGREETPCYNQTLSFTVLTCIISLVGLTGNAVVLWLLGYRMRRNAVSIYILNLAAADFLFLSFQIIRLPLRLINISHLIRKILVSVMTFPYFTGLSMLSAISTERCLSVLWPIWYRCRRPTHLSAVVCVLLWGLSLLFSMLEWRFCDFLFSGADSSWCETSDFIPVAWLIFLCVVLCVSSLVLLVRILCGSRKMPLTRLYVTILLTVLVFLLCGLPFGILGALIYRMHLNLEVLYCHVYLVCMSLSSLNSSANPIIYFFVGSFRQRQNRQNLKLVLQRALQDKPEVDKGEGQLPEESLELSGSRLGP

C[C@@H](NC(=O)[C@@H](N)Cc1ccc(O)cc1)C(=O)NCC(=O)N(C)[C@@H](Cc1ccccc1)C(=O)NCCO [DAMGO]
itch responses in WT versus Cluster KO animals [1]: comparable itch responses

C=C1C(=O)NC(C)C(=O)N(C)C(C)C(=O)NC(C(OC(=O)C(NC(C)=O)C(O)C(C)C)C(C)C)C(=O)N(C)C(C(C)OC)C(=O)OC(C)C(NC(C)=O)C(=O)OC(Cc2ccccc2)C(=O)N1C (stereo not shown) [YM-254890] (Ac-T[PhLac][NMeDha]A[NMeA][X1][NMeT](Me); ester 1-C; configuration not given here)
effect on bilirubin-induced calcium responses, MRGPRX4 [2]: inhibited | effect on bilirubin-induced calcium responses, MRGPRA1 [3]: abolished

Oc1ncnc2[nH]ncc12 [allopurinol]
eye manifestation [4]: can also induce eye manifestation

C=CC1=C(C)/C(=C/C2=NC(=C\c3[nH]c(/C=C4\NC(=O)C(C)=C4C=C)c(C)c3CCC(=O)O)/C(CCC(=O)O)=C2C)NC1=O [biliverdin]
scratching / itch elicited by injection [1]: did not induce scratching

O=C(O)COCCN1CCN(C(c2ccccc2)c2ccc(Cl)cc2)CC1 (stereo not shown) [cetirizine]
effect on bilirubin-induced scratching ([1]; 30 mg/kg, i.p., thirty minutes prior to bilirubin): failed to temper scratching behavior

Cc1c(C(=O)NCc2ccccc2C(F)(F)F)ncn1Cc1ccc(Cl)cc1 [compound 1]
Antagonist Activity [5]: ++++ (a blockade of bilirubin induced signal of at least 85%) | Inverse Agonist Activity [6]: ++++ (an activity of at least 3 standard deviations below baseline)

Cc1nc(-c2ccnn2Cc2ccc(Cl)cc2)[nH]c1-c1ccccc1 [compound 2]
Antagonist Activity [5]: ++++ (a blockade of bilirubin induced signal of at least 85%) | Inverse Agonist Activity [6]: ++++ (an activity of at least 3 standard deviations below baseline)

O=C(NCc1cc2ccccc2[nH]1)c1cc(-c2ccccn2)nc2ccc(Br)cc12 [compound 3]
Antagonist Activity [5]: ++++ (a blockade of bilirubin induced signal of at least 85%) | Inverse Agonist Activity [6]: +++ (an activity of from 2 standard deviations to less than 3 standard deviations below baseline)

Nc1nc2ccccc2n1CCOc1ccccc1Cl [compound 4]
Antagonist Activity [5]: +++ (a blockade of bilirubin induced signal of from 70% to less than 85%) | Inverse Agonist Activity [6]: +++ (an activity of from 2 standard deviations to less than 3 standard deviations below baseline)

C=CC1=C(C)c2cc3[n-]c(cc4[n-]c(cc5nc(cc1n2)C(C)=C5C=C)c(C)c4CCC(=O)O)c(CCC(=O)O)c3C.O.[Fe+2] [hematin]
itch elicited in Cluster KO animals [1]: absent | scratching / itch elicited by injection [1]: elicited itch

CN1CC[C@]23c4c5ccc(O)c4O[C@H]2[C@@H](O)C=C[C@H]3[C@H]1C5 [morphine]
itch responses in WT versus Cluster KO animals [1]: comparable itch responses

CCC1=C(C)C(Cc2[nH]c(Cc3[nH]c(CC4NC(=O)C(C)=C4CC)c(C)c3CCC(=O)O)c(CCC(=O)O)c2C)NC1=O (stereo not shown) [urobilinogen]
scratching / itch elicited by injection [1]: able to stimulate scratching behavior

FMRF: an MRGPRA1 agonist
scratching / itch elicited by injection [1]: caused itch

lysophosphatidic acid [LPA]
itch responses in WT versus Cluster KO animals [1]: comparable itch responses

stercobilin
itch elicited in Cluster KO animals [1]: absent | scratching / itch elicited by injection [1]: elicited itch; also recorded: able to stimulate scratching behavior
